Our source for the viability values is PMC11995724, “Antibiotic target discovery by integrated phenotypic and activity-based profiling of electrophilic fragments” (Cell chemical biology, 2025).

Structures can show the parent of a compound that is named as a salt.

The data set can be described thus: in vitro. The following applies: human, hek293t cells.
Experimental: Mammalian cytotoxicity measurement was performed using Cell Titer-Glo 2.0 Cell Viability Assay (Promega, G9243) according to the manufacturer protocol. In brief, mammalian cells were seeded into 384-well white plates (Greiner, 781080) and incubated at 37°C for one day. Compounds from the Cys-Library were dispensed into the assay plate using epMotion 96. The plates were then incubated at 37°C for two days. An equal volume of Cell Titer-Glo 2.0 reagent was added into each well of the assay plate using epMotion 96 and incubated at 22°C for 10 min, followed by luminescence measurement using a Cytation 5 plate reader (BioTek).
As a reminder, the viability is a read-out of living cells in per cent, often relative to untreated cells. `C=CC(=O)N1CCC(n2ccc(C)n2)CC1` [2-A21, 1-[4-(3-methyl-1H-pyrazol-1-yl)piperidin-1-yl]prop-2-en-1-one]: the viability at 48 h, 25 µM turned out to be 139%. Under `CC(NC(=O)CCl)c1nnc(-c2cccc(F)c2)s1` (stereo not drawn) [5-F13, 2-chloro-N-{1-[5-(3-fluorophenyl)-1,3,4-thiadiazol-2-yl]ethyl}acetamide] stands 0.963%. Then `C=CC(=O)N(CC)Cc1cn(C)nn1` [2-O09, N-ethyl-N-[(1-methyl-1H-1,2,3-triazol-4-yl)methyl]prop-2-enamide], with 105%. Then `COc1ccc(C=C(C#N)C(=O)NCc2ccccc2)cc1` [8-K19, N-benzyl-2-cyano-3-(4-methoxyphenyl)prop-2-enamide], with 77.3%.

For `N#CC(=Cc1ccc(Cl)cc1)C(=O)Nc1ccncc1` [8-K20, 3-(4-chlorophenyl)-2-cyano-N-(pyridin-4-yl)prop-2-enamide], the viability at 48 h, 25 µM worked out at 61.4%. Then `CC(=O)N(c1ccccc1)c1nc(C=C(C#N)C(=O)NC2CC2)cs1` [9-A12, 2-cyano-N-cyclopropyl-3-[2-(N-phenylacetamido)-1,3-thiazol-4-yl]prop-2-enamide], with 123%; and `C=CC(=O)NCCNC(=O)C1CC12CCSCC2` (stereo not drawn) [2-O06, N-[2-({6-thiaspiro[2.5]octan-1-yl}formamido)ethyl]prop-2-enamide], with 88.3%; and `C=CC(=O)NC(C)c1cn(-c2ccccc2)nn1` (stereo not drawn) [1-N04, N-[1-(1-phenyl-1H-1,2,3-triazol-4-yl)ethyl]prop-2-enamide], with 78.9%. Under `CC(C)c1ccc(-c2cc(NC(=O)CCl)n(-c3ccccc3)n2)cc1` [4-C16, 2-chloro-N-{1-phenyl-3-[4-(propan-2-yl)phenyl]-1H-pyrazol-5-yl}acetamide] stands -0.013%. Then `O=C(CCl)NCc1ccc(NC(=O)C2CC2)cc1` [6-E20, N-{4-[(2-chloroacetamido)methyl]phenyl}cyclopropanecarboxamide], with 2.09%. For `N#Cc1ccc2c(c1)CCN2C(=O)CCl` [5-N09, 1-(2-chloroacetyl)-2,3-dihydro-1H-indole-5-carbonitrile], the viability at 48 h, 25 µM turned out to be 0.856%. Then `N#CC(=Cc1ccc(O)cc1)C(=O)NCCc1c(F)cccc1F` [9-I16, 2-cyano-N-[2-(2,6-difluorophenyl)ethyl]-3-(4-hydroxyphenyl)prop-2-enamide], with 121%; and `C=CC(=O)N1CCn2c(nnc2C(F)(F)F)C1` [1-D18, 1-[3-(trifluoromethyl)-5H,6H,7H,8H-[1,2,4]triazolo[4,3-a]pyrazin-7-yl]prop-2-en-1-one], with 66.6%. Then `C=CC(=O)N1C2CCCC1CC1(C2)NC(=O)NC1=O` (stereo not drawn) [2-K06, 9-(prop-2-enoyl)-9-azaspiro[bicyclo[3.3.1]nonane-3,4'-imidazolidine]-2',5'-dione], with 89.2%; and `CN(C)c1ccc(C=C(C#N)C(=O)NCc2ccco2)cc1` [9-D10, 2-cyano-3-[4-(dimethylamino)phenyl]-N-[(furan-2-yl)methyl]prop-2-enamide], with 101%. Under `COc1ccc(C(=O)CCl)c2c1C(=O)CO2` [10-N05, 7-(2-chloroacetyl)-4-methoxy-2,3-dihydro-1-benzofuran-3-one] stands 92.2%.

For the compound `C=CC(=O)NCCC(=O)N1CCC(c2ncccn2)CC1` [3-M17, N-{3-oxo-3-[4-(pyrimidin-2-yl)piperidin-1-yl]propyl}prop-2-enamide], the viability at 48 h, 25 µM amounted to 62.4%.

With `C=CC(=O)Nc1ccc(C(=O)N(C)C[C@@H]2CCC(=O)N2)cc1` [2-L18, N-methyl-N-{[(2S)-5-oxopyrrolidin-2-yl]methyl}-4-(prop-2-enamido)benzamide], the viability at 48 h, 25 µM stood at 98.8%. Then `O=C1C=CC(=O)N1c1cc(C(F)(F)F)ccc1Cl` [10-G09, 1-[2-chloro-5-(trifluoromethyl)phenyl]-2,5-dihydro-1H-pyrrole-2,5-dione], with 58.9%. As to `O=C(CCl)Nc1ccccc1C(=O)NCc1ccccc1` [4-C03, N-benzyl-2-(2-chloroacetamido)benzamide], the viability at 48 h, 25 µM was 0.33%. Then `O=C(CCl)Nc1ccc(C(F)(F)F)cc1[N+](=O)[O-]` [4-N08, 2-chloro-N-[2-nitro-4-(trifluoromethyl)phenyl]acetamide], with 87.1%; and `N#Cc1ccc(NC(=O)CCl)cc1Cl` [4-N03, 2-chloro-N-(3-chloro-4-cyanophenyl)acetamide], with 0.427%. Then `CC(Cl)C(=O)Nc1ccc2c(c1)CCC2` (stereo not drawn) [5-C19, 2-chloro-N-(2,3-dihydro-1H-inden-5-yl)propanamide], with 68.8%; and `CC(Cl)C(=O)Nc1ccc2c(c1)C(=O)c1ccccc1C2=O` (stereo not drawn) [4-G06, 2-chloro-N-(9,10-dioxo-9,10-dihydroanthracen-2-yl)propanamide], with 58.6%.

In the case of `C=CC(=O)Nc1ccc(-c2nc3cc(C)ccc3o2)cc1` [1-D20, N-[4-(5-methyl-1,3-benzoxazol-2-yl)phenyl]prop-2-enamide], the viability at 48 h, 25 µM came out at 1.53%. Then `C=CC(=O)N(Cc1cn(C)nc1-c1ccc(F)cc1)C1CC(C)C1` (stereo not drawn) [1-P09, N-{[3-(4-fluorophenyl)-1-methyl-1H-pyrazol-4-yl]methyl}-N-(3-methylcyclobutyl)prop-2-enamide], with 64.1%; and `N#CC(=Cc1cc(F)ccc1F)C(=O)Nc1ccc(F)cc1` [8-E10, 2-cyano-3-(2,5-difluorophenyl)-N-(4-fluorophenyl)prop-2-enamide], with 87.5%; and `C=CC(=O)NCc1nc(OC)cc(OC)n1` [2-M20, N-[(4,6-dimethoxypyrimidin-2-yl)methyl]prop-2-enamide], with 99.2%. Regarding `COc1ccccc1NC(=O)C(C#N)=Cc1sccc1C` [9-P19, 2-cyano-N-(2-methoxyphenyl)-3-(3-methylthiophen-2-yl)prop-2-enamide], the viability at 48 h, 25 µM was found to be 133%.

With `Cc1ccc(NC(=O)C(C#N)=Cc2cccc([N+](=O)[O-])c2)cc1` [8-J17, 2-cyano-N-(4-methylphenyl)-3-(3-nitrophenyl)prop-2-enamide], the viability at 48 h, 25 µM amounted to 88.1%. As to `O=C(CCl)NCC(c1ccccc1Cl)N1CCCC1` (stereo not drawn) [6-G17, 2-chloro-N-[2-(2-chlorophenyl)-2-(pyrrolidin-1-yl)ethyl]acetamide hydrochloride], the viability at 48 h, 25 µM came out at 104%. Then `CC(Cl)C(=O)N1CCCC1Cc1cccc(F)c1F` (stereo not drawn) [7-E19, 2-chloro-1-{2-[(2,3-difluorophenyl)methyl]pyrrolidin-1-yl}propan-1-one], with 61.3%. Under `C=CC(=O)N1CCCC1c1cc(C)no1` (stereo not drawn) [3-G12, 1-[2-(3-methyl-1,2-oxazol-5-yl)pyrrolidin-1-yl]prop-2-en-1-one] stands 91.7%; under `Cc1c(Cl)cccc1NC(=O)CNC(=O)CCl` [5-N20, 2-chloro-N-{[(3-chloro-2-methylphenyl)carbamoyl]methyl}acetamide], 1.4%.

Turning to `C=CC(=O)N1CCC(C(=O)N[C@@H]2CC[C@H](O)C2)(c2ccccc2)CC1` (racemic) [2-H16, rac-N-[(1R,3S)-3-hydroxycyclopentyl]-4-phenyl-1-(prop-2-enoyl)piperidine-4-carboxamide], the viability at 48 h, 25 µM was 59.9%.

In the case of `C=CC(=O)NCCc1csc(-c2ccccc2)n1` [1-A13, N-[2-(2-phenyl-1,3-thiazol-4-yl)ethyl]prop-2-enamide], the viability at 48 h, 25 µM is 88.5%. Under `Cc1cccc2[nH]cc(C(=O)CCl)c12` [10-H09, 2-chloro-1-(4-methyl-1H-indol-3-yl)ethan-1-one] stands 5.75%; under `C=CC(=O)NC1CCOC(c2cnn(C)c2)C1` (stereo not drawn) [2-F07, N-[2-(1-methyl-1H-pyrazol-4-yl)oxan-4-yl]prop-2-enamide], 73%; under `Cc1cc(N2CCCC(NC(=O)C(C)Cl)C2=O)n(C)n1` (stereo not drawn) [7-B13, 2-chloro-N-[1-(1,3-dimethyl-1H-pyrazol-5-yl)-2-oxopiperidin-3-yl]propanamide], 95.8%. Under `COc1ccc(Cl)c2c1CCCC2N(C)C(=O)C(C)Cl` (stereo not drawn) [7-P09, 2-chloro-N-(8-chloro-5-methoxy-1,2,3,4-tetrahydronaphthalen-1-yl)-N-methylpropanamide] stands 86.7%; under `CC(=Cc1ccccc1)C=C(C#N)C(=O)Nc1nccs1` [8-F08, 2-cyano-4-methyl-5-phenyl-N-(1,3-thiazol-2-yl)penta-2,4-dienamide], 84.2%; under `CC(c1cnn(C)c1)N(C)C(=O)CCl` (stereo not drawn) [5-M04, 2-chloro-N-methyl-N-[1-(1-methyl-1H-pyrazol-4-yl)ethyl]acetamide], 1.55%. Then `CC1CN(c2cccc(CN(C)C(=O)C(C)Cl)c2)S(=O)(=O)C1` (stereo not drawn) [6-L18, 2-chloro-N-methyl-N-{[3-(4-methyl-1,1-dioxo-1lambda6,2-thiazolidin-2-yl)phenyl]methyl}propanamide], with 112%; and `COc1ccc(C=C(C#N)C(=O)Nc2ccccc2)cc1` [8-A05, 2-cyano-3-(4-methoxyphenyl)-N-phenylprop-2-enamide], with 76.8%; and `CN(c1ccccc1)S(=O)(=O)c1cccc(NC(=O)CCl)c1` [4-H04, 2-chloro-N-{3-[methyl(phenyl)sulfamoyl]phenyl}acetamide], with 0.751%. Take `CN(CCOc1ccc(Cl)cc1)C(=O)CCl` [5-D16, 2-chloro-N-[2-(4-chlorophenoxy)ethyl]-N-methylacetamide]: the viability at 48 h, 25 µM came to 0.377%.

Turning to `Cc1cc(=O)[nH]c(-c2cccc(NC(=O)C(C#N)=Cc3ccco3)c2)n1` [8-B10, 2-cyano-3-(furan-2-yl)-N-[3-(4-methyl-6-oxo-1,6-dihydropyrimidin-2-yl)phenyl]prop-2-enamide], the viability at 48 h, 25 µM was found to be 57.8%. Then `C=CC(=O)N1Cc2cnn(C)c2C1` [3-P14, 1-{1-methyl-1H,4H,5H,6H-pyrrolo[3,4-c]pyrazol-5-yl}prop-2-en-1-one], with 87.3%.
